In one assay the target is Histamine H1 receptor (Homo sapiens, UniProt P35367). The format is functional, cell-based.
Assay [1] deals with T1, Peroxisome proliferator-activated receptor alpha (Homo sapiens, UniProt Q07869).
T1 sequence (Q07869 whole entry): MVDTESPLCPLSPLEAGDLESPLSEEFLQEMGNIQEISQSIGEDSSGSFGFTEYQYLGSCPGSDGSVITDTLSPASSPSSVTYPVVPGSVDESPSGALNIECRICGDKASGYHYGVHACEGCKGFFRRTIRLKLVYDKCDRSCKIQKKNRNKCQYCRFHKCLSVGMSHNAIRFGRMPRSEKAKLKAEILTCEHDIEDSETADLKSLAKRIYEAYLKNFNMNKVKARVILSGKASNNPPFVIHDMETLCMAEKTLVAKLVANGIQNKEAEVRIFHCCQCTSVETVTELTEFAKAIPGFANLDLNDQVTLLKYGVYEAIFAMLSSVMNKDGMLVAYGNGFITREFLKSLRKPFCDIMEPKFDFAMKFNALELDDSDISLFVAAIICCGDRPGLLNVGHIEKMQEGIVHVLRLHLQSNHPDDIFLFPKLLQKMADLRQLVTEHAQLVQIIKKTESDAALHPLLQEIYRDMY
The format is functional.

The next assay deals with T2, Androgen receptor (Rattus norvegicus, UniProt P15207).
T2 sequence (P15207 whole entry): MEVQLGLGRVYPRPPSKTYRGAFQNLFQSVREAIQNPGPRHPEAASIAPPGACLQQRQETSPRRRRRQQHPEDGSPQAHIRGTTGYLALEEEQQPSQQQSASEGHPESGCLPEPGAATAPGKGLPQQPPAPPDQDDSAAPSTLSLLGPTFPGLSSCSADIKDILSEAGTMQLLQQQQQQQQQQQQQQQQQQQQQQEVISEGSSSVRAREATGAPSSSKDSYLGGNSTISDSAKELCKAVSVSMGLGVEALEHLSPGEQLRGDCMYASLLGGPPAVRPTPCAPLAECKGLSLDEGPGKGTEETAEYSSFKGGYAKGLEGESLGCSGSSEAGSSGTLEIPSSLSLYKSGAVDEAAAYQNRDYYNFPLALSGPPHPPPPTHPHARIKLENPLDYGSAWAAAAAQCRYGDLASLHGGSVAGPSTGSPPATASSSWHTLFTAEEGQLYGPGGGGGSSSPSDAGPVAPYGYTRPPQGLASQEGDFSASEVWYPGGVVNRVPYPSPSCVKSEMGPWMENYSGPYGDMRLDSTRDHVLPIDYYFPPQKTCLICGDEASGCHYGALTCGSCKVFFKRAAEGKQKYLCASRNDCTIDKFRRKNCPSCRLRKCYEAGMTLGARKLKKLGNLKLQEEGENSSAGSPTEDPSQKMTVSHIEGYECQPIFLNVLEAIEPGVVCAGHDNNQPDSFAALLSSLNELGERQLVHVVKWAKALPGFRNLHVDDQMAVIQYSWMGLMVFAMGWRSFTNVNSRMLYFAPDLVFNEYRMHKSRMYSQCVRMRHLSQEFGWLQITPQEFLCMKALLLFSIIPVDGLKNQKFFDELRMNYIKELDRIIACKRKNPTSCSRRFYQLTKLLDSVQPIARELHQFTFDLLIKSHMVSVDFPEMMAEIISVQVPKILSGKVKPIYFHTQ
The format is functional.

Assay [2] has as its target T3, D(1A) dopamine receptor (Homo sapiens, UniProt P21728).
Assay [3] has as its target T4, 5-hydroxytryptamine receptor 1A (Homo sapiens, UniProt P08908).
T4 sequence (P08908 whole entry): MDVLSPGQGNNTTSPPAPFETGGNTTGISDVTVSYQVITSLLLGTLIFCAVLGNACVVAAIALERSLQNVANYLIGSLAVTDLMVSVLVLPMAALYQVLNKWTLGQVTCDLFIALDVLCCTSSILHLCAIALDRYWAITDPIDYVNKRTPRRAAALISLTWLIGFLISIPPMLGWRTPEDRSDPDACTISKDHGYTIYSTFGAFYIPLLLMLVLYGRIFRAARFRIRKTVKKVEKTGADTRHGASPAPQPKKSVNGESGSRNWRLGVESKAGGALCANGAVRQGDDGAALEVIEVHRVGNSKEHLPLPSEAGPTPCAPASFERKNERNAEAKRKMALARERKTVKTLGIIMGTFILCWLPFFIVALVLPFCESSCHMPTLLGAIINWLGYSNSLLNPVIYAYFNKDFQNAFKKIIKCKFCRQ

In assay [4] the target is T3, D(1A) dopamine receptor. The format is functional, cell-based.
Assay [5] addresses Epidermal growth factor receptor (Homo sapiens, UniProt P00533). The format is functional.
Another assay concerns the target T5, Substance-K receptor (Homo sapiens, UniProt P21452).
T5 sequence (P21452 whole entry): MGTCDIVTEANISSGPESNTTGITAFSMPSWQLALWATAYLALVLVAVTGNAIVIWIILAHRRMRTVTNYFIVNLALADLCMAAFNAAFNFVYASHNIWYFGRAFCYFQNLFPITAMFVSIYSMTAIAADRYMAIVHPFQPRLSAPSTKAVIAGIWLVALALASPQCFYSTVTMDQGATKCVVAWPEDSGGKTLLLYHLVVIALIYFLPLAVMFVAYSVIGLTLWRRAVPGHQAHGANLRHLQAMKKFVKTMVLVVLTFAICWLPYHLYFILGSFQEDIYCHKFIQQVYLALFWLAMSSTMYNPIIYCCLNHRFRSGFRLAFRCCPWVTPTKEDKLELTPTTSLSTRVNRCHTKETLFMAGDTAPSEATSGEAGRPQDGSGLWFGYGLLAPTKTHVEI

For assay [6], the target named is T6, Muscarinic acetylcholine receptor M4 (Homo sapiens, UniProt P08173).
T6 sequence (P08173 whole entry): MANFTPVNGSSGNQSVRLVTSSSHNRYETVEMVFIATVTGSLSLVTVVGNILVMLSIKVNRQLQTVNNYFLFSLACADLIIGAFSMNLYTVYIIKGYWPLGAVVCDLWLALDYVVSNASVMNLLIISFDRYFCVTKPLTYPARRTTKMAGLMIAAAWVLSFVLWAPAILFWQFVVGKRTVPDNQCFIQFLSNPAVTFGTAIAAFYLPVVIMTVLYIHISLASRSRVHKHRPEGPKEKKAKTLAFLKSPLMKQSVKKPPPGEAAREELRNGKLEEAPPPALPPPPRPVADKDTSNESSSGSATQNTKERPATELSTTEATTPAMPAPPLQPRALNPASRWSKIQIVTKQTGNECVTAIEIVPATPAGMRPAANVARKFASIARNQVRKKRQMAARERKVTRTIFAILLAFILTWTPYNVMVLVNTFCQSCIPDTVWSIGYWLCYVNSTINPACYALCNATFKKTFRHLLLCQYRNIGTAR

Assay [7] addresses T3, D(1A) dopamine receptor. This is another data set of the same source.

These results are taken from ChEMBL document CHEMBL5291721, “A preclinical secondary pharmacology resource illuminates target-adverse drug reaction associations of marketed drugs” (Nat Commun, 2023).
Further: assay procedure not described here.

Sequence of Histamine H1 receptor (P35367 whole entry): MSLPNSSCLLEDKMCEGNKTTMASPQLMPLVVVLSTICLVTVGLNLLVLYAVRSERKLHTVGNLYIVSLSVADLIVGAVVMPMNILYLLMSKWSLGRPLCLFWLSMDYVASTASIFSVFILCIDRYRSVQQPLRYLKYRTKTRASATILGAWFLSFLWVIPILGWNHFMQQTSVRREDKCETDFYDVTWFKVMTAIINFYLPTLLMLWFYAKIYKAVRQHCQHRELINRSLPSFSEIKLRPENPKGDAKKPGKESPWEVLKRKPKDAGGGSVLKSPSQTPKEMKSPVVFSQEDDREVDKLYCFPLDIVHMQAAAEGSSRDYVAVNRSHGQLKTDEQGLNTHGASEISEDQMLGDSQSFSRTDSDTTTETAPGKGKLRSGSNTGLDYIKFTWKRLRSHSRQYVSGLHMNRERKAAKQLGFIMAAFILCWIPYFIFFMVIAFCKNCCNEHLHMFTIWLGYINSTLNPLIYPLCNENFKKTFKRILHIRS
T3 sequence (P21728 whole entry): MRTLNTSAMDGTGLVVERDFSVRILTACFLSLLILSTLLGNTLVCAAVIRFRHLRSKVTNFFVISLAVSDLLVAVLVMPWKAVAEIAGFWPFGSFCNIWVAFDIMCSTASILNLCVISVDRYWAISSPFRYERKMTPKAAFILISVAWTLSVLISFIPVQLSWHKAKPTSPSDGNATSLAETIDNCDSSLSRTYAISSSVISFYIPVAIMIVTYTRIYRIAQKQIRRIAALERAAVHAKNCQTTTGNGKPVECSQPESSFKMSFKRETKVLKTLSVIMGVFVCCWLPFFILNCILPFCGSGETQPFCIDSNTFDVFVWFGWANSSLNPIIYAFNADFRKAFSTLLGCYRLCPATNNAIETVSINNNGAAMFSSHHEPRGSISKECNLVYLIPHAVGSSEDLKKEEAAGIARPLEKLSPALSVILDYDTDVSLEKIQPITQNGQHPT
Sequence of Epidermal growth factor receptor (P00533 whole entry): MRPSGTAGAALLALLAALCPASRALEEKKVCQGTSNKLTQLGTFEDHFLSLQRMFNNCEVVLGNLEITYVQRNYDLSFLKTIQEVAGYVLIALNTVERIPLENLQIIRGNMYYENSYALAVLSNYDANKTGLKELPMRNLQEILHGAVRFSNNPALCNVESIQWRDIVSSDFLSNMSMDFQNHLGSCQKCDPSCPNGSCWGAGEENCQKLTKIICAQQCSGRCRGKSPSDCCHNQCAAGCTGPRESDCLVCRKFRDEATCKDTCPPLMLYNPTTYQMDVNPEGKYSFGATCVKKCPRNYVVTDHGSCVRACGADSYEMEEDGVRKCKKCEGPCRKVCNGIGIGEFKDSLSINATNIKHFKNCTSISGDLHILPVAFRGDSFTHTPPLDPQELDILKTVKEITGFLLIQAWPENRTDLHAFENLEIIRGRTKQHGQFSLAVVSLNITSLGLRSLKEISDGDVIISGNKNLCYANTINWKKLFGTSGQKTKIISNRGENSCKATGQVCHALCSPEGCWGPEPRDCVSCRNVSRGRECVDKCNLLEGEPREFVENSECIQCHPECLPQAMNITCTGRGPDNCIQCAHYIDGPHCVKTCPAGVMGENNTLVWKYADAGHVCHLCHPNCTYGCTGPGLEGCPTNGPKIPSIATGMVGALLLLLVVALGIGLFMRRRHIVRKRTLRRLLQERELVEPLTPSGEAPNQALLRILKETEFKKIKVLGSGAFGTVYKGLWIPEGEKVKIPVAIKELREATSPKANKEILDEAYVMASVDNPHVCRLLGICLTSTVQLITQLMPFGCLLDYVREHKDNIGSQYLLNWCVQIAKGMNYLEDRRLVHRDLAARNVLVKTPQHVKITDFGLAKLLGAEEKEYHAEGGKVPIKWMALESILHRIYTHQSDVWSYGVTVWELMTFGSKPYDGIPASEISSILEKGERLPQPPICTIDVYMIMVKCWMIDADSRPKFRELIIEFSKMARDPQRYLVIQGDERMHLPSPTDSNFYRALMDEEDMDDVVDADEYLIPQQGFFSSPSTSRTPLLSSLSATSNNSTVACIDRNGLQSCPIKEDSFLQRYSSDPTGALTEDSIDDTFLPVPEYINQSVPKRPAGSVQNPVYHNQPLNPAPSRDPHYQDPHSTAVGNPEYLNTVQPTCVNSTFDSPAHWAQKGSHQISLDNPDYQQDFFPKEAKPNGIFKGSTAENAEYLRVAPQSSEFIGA

In the case of `CC(C(=O)O)c1ccc(N2CC=CC2)c(Cl)c1` (configuration not stated) [PIRPROFEN], on Histamine H1 receptor, the concentration at half-maximal activity (AC50) (commonly the concentration at which the activity in the assay is half-maximal) is greater than 30 µM.

On to `COc1ccc2c(c1)C(=O)N(CCc1ccc(S(=O)(=O)NC(=O)NC3CCCCC3)cc1)C(=O)C2(C)C` [GLIQUIDONE], for which the concentration at half-maximal activity (AC50) (in assay [1]; at Androgen receptor) was greater than 30 µM each time.

For `Oc1ncnc2[nH]ncc12` [ALLOPURINOL], the AC50 (at D(1A) dopamine receptor [2]; in assay [3]) was greater than 30 µM throughout.

For `CO/N=C(\C(=O)N[C@@H]1C(=O)N2C(C(=O)[O-])=C(C[N+]3(C)CCCC3)CS[C@H]12)c1csc(N)n1`, the half-maximal activity concentration (AC50) at D(1A) dopamine receptor [4] was greater than 300 µM; in [5], greater than 300 µM; at Androgen receptor, greater than 30 µM.

In the case of `O=C(CCCCCCC(=O)Nc1ccccc1)NO` [VORINOSTAT], the concentration at half-maximal activity (AC50) on Histamine H1 receptor is greater than 30 µM; at Substance-K receptor, greater than 10 µM; in assay [6], greater than 10 µM.

On to `C#C[C@]1(O)CC[C@H]2[C@@H]3CCc4cc(O)ccc4[C@H]3CC[C@@]21C` [ETHINYL ESTRADIOL], for which the AC50 in [1] is greater than 30 µM.

The compound `CCCS(=O)(=O)Nc1ccc(F)c(C(=O)c2c[nH]c3ncc(-c4ccc(Cl)cc4)cc23)c1F` [VEMURAFENIB] showed an AC50 at Androgen receptor greater than 30 µM.

Regarding `Cc1cc2c(cc1CC(=O)c1sccc1S(=O)(=O)Nc1onc(C)c1Cl)OCO2` [SITAXENTAN], at D(1A) dopamine receptor [7], the AC50 is greater than 30 µM.

In turn, `CCC(=O)O[C@H]1[C@H](O[C@@H]2[C@@H](C)[C@H](O[C@H]3C[C@@](C)(OC)[C@@H](O)[C@H](C)O3)[C@@H](C)C(=O)O[C@H](CC)[C@@](C)(O)[C@H](O)[C@@H](C)C(=O)[C@H](C)C[C@@]2(C)O)O[C@H](C)C[C@@H]1N(C)C` [ERYTHROMYCIN PROPIONATE] registered an AC50 on D(1A) dopamine receptor [7] of 17 µM.

Turning to `CC(C)C(=O)Nc1ccc([N+](=O)[O-])c(C(F)(F)F)c1` [FLUTAMIDE], the AC50 (on D(1A) dopamine receptor [2]; in [3]) was greater than 30 µM in each case.

On to `NS(=O)(=O)c1cc2c(cc1Cl)NCNS2(=O)=O` [HYDROCHLOROTHIAZIDE], for which the AC50 (on Substance-K receptor; in [6]) was greater than 10 µM each time.

For `OC[C@@H](O)[C@@H](O)[C@H](O)[C@H](O)CO` [MANNITOL], the concentration at half-maximal activity (AC50) at D(1A) dopamine receptor [7] is greater than 30 µM.

Regarding `COC(=O)[C@@H]1CC2=CC(=O)CC[C@]2(C)[C@@]23O[C@@H]2C[C@@]2(C)[C@@H](CC[C@@]24CCC(=O)O4)[C@H]13` [EPLERENONE], the half-maximal activity concentration (AC50) (at D(1A) dopamine receptor [4]; at Histamine H1 receptor; in assay [5]) was greater than 30 µM throughout.

Turning to `COC(=O)N[C@H](C(=O)N1CCC[C@H]1c1nc(-c2ccc(-c3ccc(-c4c[nH]c([C@@H]5CCCN5C(=O)[C@@H](NC(=O)OC)C(C)C)n4)cc3)cc2)c[nH]1)C(C)C`, the half-maximal activity concentration (AC50) on Androgen receptor was greater than 30 µM.

Turning to `NC(N)=Nc1nc(CSCCC(N)=NS(N)(=O)=O)cs1` [FAMOTIDINE], the AC50 (at Substance-K receptor; in assay [6]) was greater than 10 µM each time.

For the compound `NC(=O)c1cnccn1` [PYRAZINAMIDE], the AC50 (on D(1A) dopamine receptor [2]; in [3]) was greater than 30 µM throughout.

With `Nc1nc(N)c2nc(-c3ccccc3)c(N)nc2n1`, the concentration at half-maximal activity (AC50) on Substance-K receptor was greater than 10 µM; on D(1A) dopamine receptor [2], greater than 30 µM; in assay [6], greater than 10 µM; in [3], greater than 30 µM; on Androgen receptor it was greater than 3 µM.

For the compound `CC(C)Cc1ccc(CC(=O)O)cc1` [IBUFENAC], the AC50 (at D(1A) dopamine receptor [4]; in [5]) was greater than 30 µM in each case.

`O=C(NC[C@H]1CN(c2ccc(N3CCOCC3=O)cc2)C(=O)O1)c1ccc(Cl)s1` [RIVAROXABAN]: the AC50 in assay [1] is greater than 30 µM.

Turning to `CCOC(=O)[C@H](CCc1ccccc1)N[C@@H](C)C(=O)N1CCC[C@H]1C(=O)O`, the concentration at half-maximal activity (AC50) (at Substance-K receptor; in assay [6]) was greater than 10 µM in each case.

As to `CC(=O)c1ccc2c(c1)N(CCCN1CCN(CCO)CC1)c1ccccc1S2` [ACETOPHENAZINE], the half-maximal activity concentration (AC50) on D(1A) dopamine receptor [4] amounted to 1.11 µM; at D(1A) dopamine receptor [2] it was 0.1 µM.

Regarding `CC(C)NNC(=O)c1ccncc1` [IPRONIAZID], the half-maximal activity concentration (AC50) (on D(1A) dopamine receptor [4]; in [5]) was greater than 30 µM throughout.
